Molecular target: T1, bovine serum albumin (BSA) (Bos taurus, UniProt P02769)
T1 construct: gene ALB
Assay: intrinsic fluorescence quenching (eugenol […])
Format: binding

T1 sequence (P02769 25-607): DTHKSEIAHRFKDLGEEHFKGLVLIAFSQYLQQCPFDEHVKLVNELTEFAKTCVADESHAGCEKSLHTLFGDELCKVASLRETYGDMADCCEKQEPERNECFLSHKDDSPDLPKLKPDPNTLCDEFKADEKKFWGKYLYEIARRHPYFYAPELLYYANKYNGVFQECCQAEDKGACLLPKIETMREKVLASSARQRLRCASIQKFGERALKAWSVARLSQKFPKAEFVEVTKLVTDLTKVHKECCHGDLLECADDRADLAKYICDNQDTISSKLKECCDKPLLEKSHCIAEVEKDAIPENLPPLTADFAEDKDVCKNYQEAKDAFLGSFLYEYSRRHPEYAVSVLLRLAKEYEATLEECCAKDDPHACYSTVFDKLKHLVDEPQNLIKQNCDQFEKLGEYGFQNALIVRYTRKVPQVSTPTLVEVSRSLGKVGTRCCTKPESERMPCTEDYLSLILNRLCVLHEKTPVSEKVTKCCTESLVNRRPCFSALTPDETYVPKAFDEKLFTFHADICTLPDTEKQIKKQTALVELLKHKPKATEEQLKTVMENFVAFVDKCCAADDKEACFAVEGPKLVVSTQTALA

## C=CCc1ccc(O)c(OC)c1 [EUG, eugenol]
  intrinsic fluorescence quenching (eugenol 1-50 mM): In the intrinsic fluorescence assay, it was evident that eugenol binds to BSA in a concentration dependent manner
